One experiment deals with human TACE (Homo sapiens (Human), UniProt P78536). Particulars: read-out: TACE potency IC50.
The target of a further experiment is human ADAMTS-5 (Homo sapiens (Human), UniProt Q9UNA0). The note with it: read-out: hADAMTS-5 potency IC50.

pIC50: −log10 of the molar value.

Chain of human ADAMTS-5 (Q9UNA0 262-930): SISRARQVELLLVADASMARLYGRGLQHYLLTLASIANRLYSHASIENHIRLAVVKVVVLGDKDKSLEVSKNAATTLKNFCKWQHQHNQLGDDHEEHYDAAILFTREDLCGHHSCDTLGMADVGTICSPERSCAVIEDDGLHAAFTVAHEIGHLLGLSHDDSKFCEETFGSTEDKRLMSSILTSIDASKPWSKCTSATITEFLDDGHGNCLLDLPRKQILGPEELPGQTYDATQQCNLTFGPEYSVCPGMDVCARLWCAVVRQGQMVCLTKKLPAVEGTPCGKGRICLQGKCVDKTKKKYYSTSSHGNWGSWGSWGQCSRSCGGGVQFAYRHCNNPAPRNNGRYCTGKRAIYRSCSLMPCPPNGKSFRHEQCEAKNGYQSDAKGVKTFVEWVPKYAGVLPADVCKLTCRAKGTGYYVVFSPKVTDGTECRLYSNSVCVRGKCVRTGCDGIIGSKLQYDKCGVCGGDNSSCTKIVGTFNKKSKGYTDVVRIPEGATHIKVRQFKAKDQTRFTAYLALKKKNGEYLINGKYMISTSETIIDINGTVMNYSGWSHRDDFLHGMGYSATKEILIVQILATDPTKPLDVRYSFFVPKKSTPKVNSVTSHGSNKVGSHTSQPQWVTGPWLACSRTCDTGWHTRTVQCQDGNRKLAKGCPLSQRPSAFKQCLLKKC
Chain of human TACE (P78536 whole entry, looked up, change not shown): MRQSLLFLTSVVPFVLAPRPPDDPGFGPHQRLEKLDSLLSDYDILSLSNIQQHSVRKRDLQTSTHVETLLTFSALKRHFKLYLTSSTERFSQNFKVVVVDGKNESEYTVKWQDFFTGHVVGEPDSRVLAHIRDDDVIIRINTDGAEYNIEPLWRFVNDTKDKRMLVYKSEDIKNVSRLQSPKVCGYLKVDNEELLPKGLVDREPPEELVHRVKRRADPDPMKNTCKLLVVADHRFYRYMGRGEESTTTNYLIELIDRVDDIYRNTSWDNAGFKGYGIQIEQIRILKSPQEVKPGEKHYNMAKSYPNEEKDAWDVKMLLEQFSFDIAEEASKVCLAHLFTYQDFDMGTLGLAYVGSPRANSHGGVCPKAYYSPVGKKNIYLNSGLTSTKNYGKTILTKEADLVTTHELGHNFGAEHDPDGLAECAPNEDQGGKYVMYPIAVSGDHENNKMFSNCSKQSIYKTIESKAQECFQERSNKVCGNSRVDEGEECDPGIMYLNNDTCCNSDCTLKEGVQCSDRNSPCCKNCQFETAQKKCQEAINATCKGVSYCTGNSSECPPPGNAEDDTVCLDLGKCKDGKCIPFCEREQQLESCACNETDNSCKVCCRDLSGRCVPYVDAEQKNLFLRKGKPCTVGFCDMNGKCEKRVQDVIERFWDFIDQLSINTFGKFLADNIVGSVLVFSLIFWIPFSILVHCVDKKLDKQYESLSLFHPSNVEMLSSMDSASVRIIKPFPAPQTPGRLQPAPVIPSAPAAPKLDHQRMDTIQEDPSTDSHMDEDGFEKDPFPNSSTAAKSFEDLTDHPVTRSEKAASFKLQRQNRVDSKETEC
Procedure for human ADAMTS-5: Finally, the fluorescence is read on the Envision (Perkin Elmer) after an incubation of 90 min at 37° C.

As usually defined, the pIC50 is the negative decadic logarithm of the IC50, by convention in mol/L. `C[C@H]1CN(C(=O)CCC2(c3ccccn3)NC(=O)NC2=O)CCN1c1cccc(F)c1` (stereo partly drawn) [compound 345, 5-[3-[(3S)-4-(3-fluorophenyl)-3-methyl-piperazin-1-yl]-3-oxo-propyl]-5-(2-pyridyl)imidazolidine-2,4-dione]: the negative logarithm of the IC50 (pIC50) is under 5.40 on human TACE and 7.30 at human ADAMTS-5.

In the case of `C[C@H]1CN(C(=O)CCC2(c3ccccn3)NC(=O)NC2=O)CCN1c1ccc(Cl)c(Cl)c1` (stereo partly drawn) [compound 347, 5-[3-[(3S)-4-(3,4-dichlorophenyl)-3-methyl-piperazin-1-yl]-3-oxo-propyl]-5-(2-pyridyl)imidazolidine-2,4-dione], the negative logarithm of the IC50 (pIC50) was 5.62 at human TACE and 7.68 on human ADAMTS-5.

As to `C[C@H]1CN(C(=O)CCC2(c3ccccn3)NC(=O)NC2=O)CCN1c1cc(F)cc(F)c1` (stereo partly drawn) [compound 348, 5-[3-[(3S)-4-(3,5-difluorophenyl)-3-methyl-piperazin-1-yl]-3-oxo-propyl]-5-(2-pyridyl)imidazolidine-2,4-dione], the negative-log IC50 (pIC50) at human TACE was under 5.40; on human ADAMTS-5, 7.47.

Turning to `C[C@H]1CN(C(=O)CCC2(c3cnccn3)NC(=O)NC2=O)CCN1c1ccc(F)c(Cl)c1` (stereo partly drawn) [compound 349, 5-[3-[(3S)-4-(3-chloro-4-fluoro-phenyl)-3-methyl-piperazin-1-yl]-3-oxo-propyl]-5-pyrazin-2-yl-imidazolidine-2,4-dione], the pIC50 at human TACE is under 5.40; at human ADAMTS-5 it was 7.21.

As for `Cc1noc(N2CCN(C(=O)CCC3(C4CC4)NC(=O)NC3=O)C[C@@H]2C)n1` (stereo partly drawn) [compound 352, 5-cyclopropyl-5-[3-[(3S)-3-methyl-4-(3-methyl-1,2,4-oxadiazol-5-yl)piperazin-1-yl]-3-oxo-propyl]imidazolidine-2,4-dione], the negative logarithm of the IC50 (pIC50) at human TACE and on human ADAMTS-5 was under 4.70 each time.

For `Cc1nc(C2(CCC(=O)N3CCN(c4cc(F)cc(F)c4)[C@@H](C)C3)NC(=O)NC2=O)c[nH]1` (stereo partly drawn) [compound 354, 5-[3-[(3S)-4-(3,5-difluorophenyl)-3-methyl-piperazin-1-yl]-3-oxo-propyl]-5-(2-methyl-1H-imidazol-4-yl)imidazolidine-2,4-dione], the pIC50 on human TACE and at human ADAMTS-5 was under 4.70 throughout.

`COc1ccc(C2(CCC(=O)N3CCN(c4cc(F)cc(F)c4)[C@@H](C)C3)NC(=O)NC2=O)cn1` (stereo partly drawn) [compound 356, 5-[3-[(3S)-4-(3,5-difluorophenyl)-3-methyl-piperazin-1-yl]-3-oxo-propyl]-5-(6-methoxy-3-pyridyl)imidazolidine-2,4-dione]: the pIC50 at human TACE was under 5.40; on human ADAMTS-5, 7.40.

With `CCC1(CC(C)C(=O)N2CCN(c3cncc(F)c3)[C@@H](C)C2)NC(=O)NC1=O` (stereo partly drawn) [compound 360, 5-ethyl-5-[3-[(3S)-4-(5-fluoro-3-pyridyl)-3-methyl-piperazin-1-yl]-2-methyl-3-oxo-propyl]imidazolidine-2,4-dione], the pIC50 on human TACE was under 4.70; at human ADAMTS-5, 6.92.

Take `C[C@H]1CN(C(=O)CCC2(c3cn(C)cn3)NC(=O)NC2=O)CCN1c1cc(F)cc(F)c1` (stereo partly drawn) [compound 361, 5-[3-[(3S)-4-(3,5-difluorophenyl)-3-methyl-piperazin-1-yl]-3-oxo-propyl]-5-(1-methylimidazol-4-yl)imidazolidine-2,4-dione]: the pIC50 on human TACE was under 4.70; at human ADAMTS-5, 7.29.

Turning to `C[C@H]1CN(C(=O)CCC2(c3cocn3)NC(=O)NC2=O)CCN1c1cc(F)cc(F)c1` (stereo partly drawn) [compound 362, 5-[3-[(3S)-4-(3,5-difluorophenyl)-3-methyl-piperazin-1-yl]-3-oxo-propyl]-5-oxazol-4-yl-imidazolidine-2,4-dione], the pIC50 was under 4.70 on human TACE and 7.30 at human ADAMTS-5.

`COCC1(CC(C)C(=O)N2CCN(c3cncc(Cl)c3)[C@@H](C)C2)NC(=O)NC1=O` (stereo partly drawn) [compound 363, 5-[3-[(3S)-4-(5-chloro-3-pyridyl)-3-methyl-piperazin-1-yl]-2-methyl-3-oxo-propyl]-5-(methoxymethyl)imidazolidine-2,4-dione]: the results for the pIC50 on human TACE and on human ADAMTS-5 were under 4.92 and 7.12, respectively.

`COCC1(CC(C)C(=O)N2CCN(c3ccc(F)cc3)[C@@H](C)C2)NC(=O)NC1=O` (stereo partly drawn) [compound 366, 5-[3-[(3S)-4-(4-fluorophenyl)-3-methyl-piperazin-1-yl]-2-methyl-3-oxo-propyl]-5-(methoxymethyl)imidazolidine-2,4-dione]: the pIC50 at human TACE was under 5.40; on human ADAMTS-5, 7.44.

`C[C@H]1CN(C(=O)CCC2(C3CC3)NC(=O)NC2=O)CCN1c1cccc(-c2ccnn2C)c1` (stereo partly drawn) [compound 368, 5-cyclopropyl-5-[3-[(3S)-3-methyl-4-[3-(2-methylpyrazol-3-yl)phenyl]piperazin-1-yl]-3-oxo-propyl]imidazolidine-2,4-dione]: the results for the negative-log IC50 (pIC50) on human TACE and at human ADAMTS-5 were under 4.70 and 6.59, respectively.

Consider `Cc1noc(C)c1-c1cccc(N2CCN(C(=O)CCC3(C4CC4)NC(=O)NC3=O)C[C@@H]2C)c1` (stereo partly drawn) [compound 369, 5-cyclopropyl-5-[3-[(3S)-4-[3-(3,5-dimethylisoxazol-4-yl)phenyl]-3-methyl-piperazin-1-yl]-3-oxo-propyl]imidazolidine-2,4-dione], for which the pIC50 was under 4.70 at human TACE and 5.97 at human ADAMTS-5.

With `CC(C)n1cc(-c2cccc(N3CCN(C(=O)CCC4(C5CC5)NC(=O)NC4=O)C[C@@H]3C)c2)cn1` (stereo partly drawn) [compound 370, 5-cyclopropyl-5-[3-[(3S)-4-[3-(1-isopropylpyrazol-4-yl)phenyl]-3-methyl-piperazin-1-yl]-3-oxo-propyl]imidazolidine-2,4-dione], the pIC50 on human TACE was under 4.70; on human ADAMTS-5, 6.27.

`C[C@H]1CN(C(=O)CCC2(C3CC3)NC(=O)NC2=O)CCN1c1cnnc(Cl)c1` (stereo partly drawn) [compound 373, 5-[3-[(3S)-4-(6-chloropyridazin-4-yl)-3-methyl-piperazin-1-yl]-3-oxo-propyl]-5-cyclopropyl-imidazolidine-2,4-dione]: the pIC50 at human TACE was under 4.70; on human ADAMTS-5 it was 5.82.

Consider `C[C@H]1CN(C(=O)CCC2(C3CC3)NC(=O)NC2=O)CCN1c1ccn(C)n1` (stereo partly drawn) [compound 374, 5-cyclopropyl-5-[3-[(3S)-3-methyl-4-(1-methylpyrazol-3-yl)piperazin-1-yl]-3-oxo-propyl]imidazolidine-2,4-dione], for which the pIC50 on human TACE is under 4.70; on human ADAMTS-5, 5.51.

`COC[C@]1(CC(C)C(=O)N2CCN(c3cc(F)cc(-c4cn[nH]c4)c3)[C@@H](C)C2)NC(=O)NC1=O` (stereo partly drawn) [compound 376, 5-[3-[(3S)-4-[3-fluoro-5-(1H-pyrazol-4-yl)phenyl]-3-methyl-piperazin-1-yl]-2-methyl-3-oxo-propyl]-5-(methoxymethyl)imidazolidine-2,4-dione]: the results for the negative-log IC50 (pIC50) at human TACE and at human ADAMTS-5 were 5.61 and 7.28, respectively.

`C[C@H]1CN(C(=O)CCC2(C3CC3)NC(=O)NC2=O)CCN1c1cccc(-c2cncnc2)c1` (stereo partly drawn) [compound 377, 5-cyclopropyl-5-[3-[(3S)-3-methyl-4-(3-pyrimidin-5-ylphenyl)piperazin-1-yl]-3-oxo-propyl]imidazolidine-2,4-dione]: the figures for the negative logarithm of the IC50 (pIC50) on human TACE and at human ADAMTS-5 were under 4.70 and 6.15, respectively.

For the molecule `C[C@@H](C[C@@]1(C2CC2)NC(=O)NC1=O)C(=O)N1CCN(c2ccc(F)c(-c3cn[nH]c3)c2)[C@@H](C)C1` [compound 378, 5-cyclopropyl-5-[3-[(3S)-4-[4-fluoro-3-(1H-pyrazol-4-yl)phenyl]-3-methyl-piperazin-1-yl]-2-methyl-3-oxo-propyl]imidazolidine-2,4-dione], the values for the negative logarithm of the IC50 (pIC50) on human TACE and on human ADAMTS-5 were under 5.40 and 7.66, respectively.

As to `COC[C@]1(C[C@H](C)C(=O)N2CCN(c3cccc(-c4cn[nH]c4)c3)[C@@H](C)C2)NC(=O)NC1=O` [compound 380, 5-(methoxymethyl)-5-[2-methyl-3-[(3S)-3-methyl-4-[3-(1H-pyrazol-4-yl)phenyl]piperazin-1-yl]-3-oxo-propyl]imidazolidine-2,4-dione], the results for the pIC50 on human TACE and on human ADAMTS-5 were under 5.40 and 7.33, respectively.

For `C[C@H]1CN(C(=O)CCC2(C3CC3)NC(=O)NC2=O)CCN1c1cccc(-c2ccc(Cl)nn2)c1` (stereo partly drawn) [compound 381, 5-[3-[(3S)-4-[3-(6-chloropyridazin-3-yl)phenyl]-3-methyl-piperazin-1-yl]-3-oxo-propyl]-5-cyclopropyl-imidazolidine-2,4-dione], the figures for the pIC50 on human TACE and on human ADAMTS-5 were under 4.70 and 5.71, respectively.

On to `C[C@H]1CN(C(=O)CCC2(c3ncccn3)NC(=O)NC2=O)CCN1c1cc(F)cc(F)c1` (stereo partly drawn) [compound 382, 5-[3-[(3S)-4-(3,5-difluorophenyl)-3-methyl-piperazin-1-yl]-3-oxo-propyl]-5-pyrimidin-2-yl-imidazolidine-2,4-dione], for which the pIC50 at human TACE was under 4.70; on human ADAMTS-5, 7.41.

As for `Cc1ccc(C2(CCC(=O)N3CCN(c4cc(F)cc(Cl)c4)[C@@H](C)C3)NC(=O)NC2=O)cn1` (stereo partly drawn) [compound 383, 5-[3-[(3S)-4-(3-chloro-5-fluoro-phenyl)-3-methyl-piperazin-1-yl]-3-oxo-propyl]-5-(6-methyl-3-pyridyl)imidazolidine-2,4-dione], the results for the negative logarithm of the IC50 (pIC50) on human TACE and at human ADAMTS-5 were under 5.40 and 7.37, respectively.

As for `Cc1ccc(C2(CCC(=O)N3CCN(c4cc(Cl)cc(Cl)c4)[C@@H](C)C3)NC(=O)NC2=O)cn1` (stereo partly drawn) [compound 384, 5-[3-[(3S)-4-(3,5-dichlorophenyl)-3-methyl-piperazin-1-yl]-3-oxo-propyl]-5-(6-methyl-3-pyridyl)imidazolidine-2,4-dione], the values for the pIC50 on human TACE and on human ADAMTS-5 were 5.65 and 7.22, respectively.

`Cc1ccc(C2(CCC(=O)N3CCN(c4cccc(F)c4)[C@@H](C)C3)NC(=O)NC2=O)cn1` (stereo partly drawn) [compound 385, 5-[3-[(3S)-4-(3-fluorophenyl)-3-methyl-piperazin-1-yl]-3-oxo-propyl]-5-(6-methyl-3-pyridyl)imidazolidine-2,4-dione]: the results for the pIC50 on human TACE and on human ADAMTS-5 were under 5.40 and 7.15, respectively.

For the molecule `Cc1ccc(C2(CCC(=O)N3CCN(c4cc(F)cc(F)c4)[C@@H](C)C3)NC(=O)NC2=O)cn1` (stereo partly drawn) [compound 386, 5-[3-[(3S)-4-(3,5-difluorophenyl)-3-methyl-piperazin-1-yl]-3-oxo-propyl]-5-(6-methyl-3-pyridyl)imidazolidine-2,4-dione], the negative-log IC50 (pIC50) at human TACE was under 5.40; at human ADAMTS-5 it was 7.32.
